# Assay results taken from patent publication US4822786A, “Cephalosporin compounds, and antibacterial agents” (Kaken Pharmaceutical Co., Ltd., priority 1986, dated 1989).
# Read-outs that look alike come from different tables or passages of the source.
# Assays:
# [1] = test system: Enterobacter cloacae Nek 39; assay: minimum inhibitory concentration, agar plate dilution method; assay type: cell-based
# [2] = test system: Pseudomonas aeruginosa Y-1; assay: as above; assay type: cell-based
# [3] = test system: Klebsiella pneumoniae No. 42; assay: as above; assay type: cell-based
# Escherichia coli ML 4707 [4] = assay: infection-preventive effects in mice (intraperitoneal infection, survival); assay type: in vivo, JCL:JCR type male mice; details: ML4707, ip, 168 h, E. coli ML 4707, 1.1 × 10^6 cells/mouse i.p., no mucin, compound hypodermically 1 hour after infection, 7-day survival
# [5] = test system: Pseudomonas aeruginosa Y-1; assay: as above; assay type: in vivo, JCL:JCR type male mice; details: Y1, ip, 168 h
# [6] = test system: Pseudomonas aeruginosa K-13; assay: minimum inhibitory concentration, agar plate dilution method; assay type: cell-based
# [7] = test system: Acinetobacter calcoaceticus No. 4; assay: as above; assay type: cell-based
# [8] = test system: Serratia marcescens No. 16-2; assay: as above; assay type: cell-based
# Pseudomonas cepacia 23 = assay: as above; assay type: cell-based
# [9] = test system: Pseudomonas aeruginosa K-13; assay: infection-preventive effects in mice (intraperitoneal infection, survival); assay type: in vivo, JCL:JCR type male mice; details: K13, ip, 168 h
# [10] = test system: Staphyloccocus aureus Smith; assay: as above; assay type: in vivo, JCL:JCR type male mice; details: Staphylococcus aureus, ip, 168 h; S. aureus Smith, 7.7 × 10^7 cells/mouse i.p., no mucin; compound hypodermically 1 hour after infection; 7-day survival
# Proteus vulgaris No. 33 = assay: minimum inhibitory concentration, agar plate dilution method; assay type: cell-based
# [11] = test system: Staphylococus aureus FDA 209-P JC-1; assay: as above; assay type: cell-based; details: Staphylococcus aureus, FDA209; S. aureus FDA 209-P JC-1; inoculated amount of cells 10^6 CFU/ml; Muller-Hinton agar; read-out: minimum inhibitory concentration (M.I.C.)
# Escherichia coli ML 4707 [12] = assay: as above; assay type: cell-based; details: ML4707, E. coli ML 4707, inoculated amount of cells 10^6 CFU/ml, Muller-Hinton agar, read-out: minimum inhibitory concentration (M.I.C.)
# [13] = NEK39, E. cloacae Nek 39, inoculated amount of cells 10^6 CFU/ml, Muller-Hinton agar, read-out: minimum inhibitory concentration (M.I.C.)
# [14] = Y1, P. aeruginosa Y-1, inoculated amount of cells 10^6 CFU/ml, Muller-Hinton agar, read-out: minimum inhibitory concentration (M.I.C.)
# [15] = K. pneumoniae No. 42, inoculated amount of cells 10^6 CFU/ml, Muller-Hinton agar, read-out: minimum inhibitory concentration (M.I.C.)
# [16] = P. aeruginosa Y-1, 4.0 × 10^5 cells/mouse i.p., with mucin, compound hypodermically 1 hour after infection, 7-day survival, read-out: ED50
# [17] = K13, P. aeruginosa K-13, inoculated amount of cells 10^6 CFU/ml, Muller-Hinton agar, read-out: minimum inhibitory concentration (M.I.C.)
# [18] = A. calcoaceticus No. 4, inoculated amount of cells 10^6 CFU/ml, Muller-Hinton agar, read-out: minimum inhibitory concentration (M.I.C.)
# [19] = NO.162, S. marcescens No. 16-2, inoculated amount of cells 10^6 CFU/ml, Muller-Hinton agar, read-out: minimum inhibitory concentration (M.I.C.)
# [20] = Burkholderia cepacia, P. cepacia 23, inoculated amount of cells 10^6 CFU/ml, Muller-Hinton agar, read-out: minimum inhibitory concentration (M.I.C.)
# [21] = P. aeruginosa K-13, 3.0 × 10^4 cells/mouse i.p., with mucin, compound hypodermically 1 hour after infection, 7-day survival, read-out: ED50
# [22] = P. vulgaris No. 33, inoculated amount of cells 10^6 CFU/ml, Muller-Hinton agar, read-out: minimum inhibitory concentration (M.I.C.)
Compound,ED50 (Escherichia coli ML 4707 [4]),ED50 [10],MIC [11],MIC (Escherichia coli ML 4707 [12]),"MIC [1, 13]","MIC [2, 14]","MIC [3, 15]","ED50 [5, 16]","MIC [6, 17]","MIC [7, 18]","MIC [8, 19]",MIC (Pseudomonas cepacia 23; [20]),"ED50 [9, 21]",MIC (Proteus vulgaris No. 33; [22]),other results
"CC(C)(O/N=C(\C(=O)N[C@@H]1C(=O)N2C(C(=O)[O-])=C(C[n+]3ccccc3)CS[C@H]12)c1csc(N)n1)C(=O)O [CAZ, ceftazidime, reference compound]",0.73 mg/kg,17 mg/kg,12.5 µg/mL,0.2 µg/mL,–,–,–,–,–,–,–,–,–,–,"MIC ([1]; NEK39, read-out: minimum inhibitory concentration (M.I.C.)): 1.56 µg/mL; MIC ([2]; Y1, read-out: minimum inhibitory concentration (M.I.C.)): 1.56 µg/mL; MIC ([3]; NO.42, read-out: minimum inhibitory concentration (M.I.C.)): 0.39 µg/mL; ED50 [5]: 16 mg/kg; MIC ([6]; K13, read-out: minimum inhibitory concentration (M.I.C.)): 3.13 µg/mL; MIC ([7]; NO.4, read-out: minimum inhibitory concentration (M.I.C.)): 6.25 µg/mL; MIC ([8]; NO.162, read-out: minimum inhibitory concentration (M.I.C.)): 1.56 µg/mL; MIC (Pseudomonas cepacia 23; Burkholderia cepacia, 23, read-out: minimum inhibitory concentration (M.I.C.)): 1.56 µg/mL; ED50 [9]: 31 mg/kg; MIC (Proteus vulgaris No. 33; NO.33, read-out: minimum inhibitory concentration (M.I.C.)): 0.1 µg/mL"
"NC(=O)c1cc[n+](CC2=C(C(=O)O)N3C(=O)[C@@H](NC(=O)[C@@H](c4ccccc4)S(=O)(=O)[O-])[C@H]3SC2)cc1 [CFS, cefsulodin, reference compound]",> 100 mg/kg,–,3.13 µg/mL,50 µg/mL,> 100 µg/mL,1.56 µg/mL,> 100 µg/mL,13 mg/kg,3.13 µg/mL,50 µg/mL,> 100 µg/mL,> 100 µg/mL,39 mg/kg,–,–
"CO/N=C(\C(=O)N[C@@H]1C(=O)N2C(C(=O)O)=C(COC(C)=O)CS[C@H]12)c1csc(N)n1 [CTX, cefotaxime, reference compound]",0.095 mg/kg,3.1 mg/kg,3.13 µg/mL,≤ 0.025 µg/mL,3.13 µg/mL,12.5 µg/mL,0.1 µg/mL,> 200 mg/kg,25 µg/mL,25 µg/mL,6.25 µg/mL,3.13 µg/mL,> 100 mg/kg,0.05 µg/mL,–
"Cc1cc(SCC2=C(C(=O)O)N3C(=O)[C@@H](NC(=O)/C(=N\OCc4cc(=O)c(O)cn4O)c4csc(N)n4)[C@H]3SC2)n2nc(C(=O)O)nc2n1 [Example 4, (6R, 7R)-7-[(Z)-2-(2-aminothiazol-4-yl)-2-(1,5-dihydroxy-4-pyridon-2-ylmethoxyimino)acetamido]-3(2-carboxy-5-methyl-s-triazolo[1,5-a]pyrimidin-7-ylthiomethyl)-3-cephem-4-carboxylic acid]",0.16 mg/kg,8.7 mg/kg,12.5 µg/mL,0.1 µg/mL,0.39 µg/mL,0.39 µg/mL,0.2 µg/mL,4 mg/kg,0.2 µg/mL,12.5 µg/mL,0.39 µg/mL,0.2 µg/mL,12 mg/kg,0.1 µg/mL,–
"Cn1nnnc1SCC1=C(C(=O)O)N2C(=O)[C@@H](NC(=O)/C(=N\OCc3cc(=O)c(O)cn3O)c3csc(N)n3)[C@H]2SC1 [Example 5, (6R, 7R)-7-[(Z)-2-(2-aminothiazol-4-yl)-2-(1,5-dihydroxy-4-pyridon-2-ylmethoxyimino)acetamido]-3(1-methyl-1H-tetrazol-5-ylthiomethyl)-3-cephem-4carboxylic acid]",0.12 mg/kg,–,50 µg/mL,≤ 0.025 µg/mL,0.39 µg/mL,0.1 µg/mL,≤ 0.025 µg/mL,–,0.1 µg/mL,1.56 µg/mL,0.39 µg/mL,0.05 µg/mL,18.9 mg/kg,≤ 0.025 µg/mL,–
Nc1nc(/C(=N/OCc2cc(=O)c(O)cn2O)C(=O)N[C@@H]2C(=O)N3C(C(=O)O)=C(CSc4nnnn4CCO)CS[C@H]23)cs1 [Example 6],0.13 mg/kg,42 mg/kg,25 µg/mL,≤ 0.025 µg/mL,0.78 µg/mL,0.1 µg/mL,0.05 µg/mL,1.4 mg/kg,0.2 µg/mL,3.13 µg/mL,0.39 µg/mL,0.1 µg/mL,4.6 mg/kg,0.05 µg/mL,–
"C[n+]1ccc(SCC2=C(C(=O)[O-])N3C(=O)[C@@H](NC(=O)/C(=N\OCc4cc(=O)c(O)cn4O)c4csc(N)n4)[C@H]3SC2)cc1 [Example 18, (6R, 7R)-7-[(Z)-2-(2-aminothiazol-4-yl)-2-(1,5-dihydroxy-4-pyridon-2-ylmethoxyimino)acetamido]-3-(1-methylpyridinium-4-ylthiomethyl)-3-cephem-4-carboxylat]",0.034 mg/kg,2.9 mg/kg,6.25 µg/mL,≤ 0.025 µg/mL,0.39 µg/mL,0.2 µg/mL,0.05 µg/mL,2 mg/kg,0.78 µg/mL,3.13 µg/mL,0.78 µg/mL,0.2 µg/mL,13 mg/kg,0.1 µg/mL,–
"C[n+]1ccc(SCC2=C(C(=O)[O-])N3C(=O)[C@@H](NC(=O)/C(=N\OCc4cc(=O)c(O)cn4O)c4csc(N)n4)[C@H]3SC2)c2c1CCC2 [Example 19, (6R, 7R)-7-[(Z)-2-(2-aminothiazol-4-yl)-2-(1,5-dihydroxy-4-pyridon-2-ylmethoxyimino)acetamido]-3-(2,3-cyclopenteno-1-methylpyridinium-4-ylthiomethy)-3-cephem-4-carboxylate]",0.077 mg/kg,–,12.5 µg/mL,0.05 µg/mL,0.2 µg/mL,0.78 µg/mL,0.1 µg/mL,7.8 mg/kg,1.56 µg/mL,6.25 µg/mL,1.56 µg/mL,0.39 µg/mL,9.6 mg/kg,0.2 µg/mL,–
